{"source": "patent US20050282814A1", "about": "“Vasculostatic agents and methods of use thereof” (TargeGen, Inc., priority 2002, published 2005)", "test_system": "CT-26 Colon carcinoma cells", "assay": "CT-26 colon carcinoma lung metastases model, alone or with doxorubicin or docetaxel", "format": "in vivo, Balb/C mice", "details": "CT-26 lung metastases; I.P. every 3 days for 3 cycles; day 20", "procedure": "FIG. 3 illustrates the effect of compounds administered in conjunction with doxorubicin in an in vivo model of metastatic colon cancer (CT-26 adenocarcinoma). Syngeneic CT-26 Colon carcinoma cells were injected I.V. in order to establish lung metastases in Balb/C mice. Beginning 10 days after cells were injected, indicated test agents were given I.P. every 3 days for 3 cycles. Animals were sacrificed at day 20, lungs were collected, and weighed. Net tumor burden is the weight of tumor-bearing lungs minus the average weight of normal control lungs. N=5/group, p<0.02. In these graphs, compound A is 6,7-bis(4-hydroxyphenyl)-pteridin-4-ylamine sulfate salt, and compound B is 6,7-diphenyl-pteridine-2,4-diamine.\nFIG. 4 illustrates the effects of compounds of the present invention for co-drug therapy with Taxotere as described herein. Syngeneic CT-26 Colon carcinoma cells were used in order to establish lung metastases in Balb/C mice as described for FIG. 3. 6,7-bis(4-hydroxyphenyl)-pteridin-4-ylamine, sulfate salt (compound A) and 6,7-diphenyl-pteridine-2,4-diamine (compound B) from FIG. 1 are shown in FIG. 4.\nFIG. 6 illustrates the effect of compounds administered in conjunction with docetaxel in the in vivo model of metastatic colon cancer (CT-26 adenocarcinoma) described for FIG. 4. N=5/group, p<0.02. […]", "note": "Where a name gives a salt, the structure may show the parent alone."}
{"compound": "Nc1ncnc2nc(-c3ccc(O)cc3)c(-c3ccc(O)cc3)nc12", "note": "[compound A, 6,7-bis(4-hydroxyphenyl)-pteridin-4-ylamine sulfate salt]", "values": [{"measurement": "reduction of tumor burden in combination with docetaxel", "result": "greater than 80%"}, {"measurement": "reduction of tumor burden in combination with doxorubicin", "result": "greater than 60%"}]}
